# According to patent publication US12193465B2, “Materials and methods for extending shelf-life of foods” (JP Laboratories, Inc., priority 2021, dated 2025):
# Assays:
# [1] = General shelf-life extension of foods (spoilage criteria of Example 9); settings: for Effectiveness for controlling one or more spoilage criteria: variety of foods
# Protocol: All studies were conducted at a room temperature of about 25° C. To determine the effectiveness of a shelf-life extender, a control sample which was untreated with any shelf-life extenders, was tested identical to the test samples. […] All studies in those Examples of Tables 1-6 were conducted in closed plastic or glass containers. Containers, such as plastic containers, without or with lids having holes can be used if it is advantageous to let excess moisture escape or to prevent condensation of moisture released by some produce.
# Food exposed to preservatives or by a sachet was placed in typically polystyrene or acrylic containers depending upon the size and number of food items. Glass jars and bottles were also used. The containers were snap-closed or with a lid. The containers were purchased mainly from Amazon or Webstaurant.com store. When needed, plastic containers with holes or without lids were used.
# For controlled exposure and a constant supply of a preservative to foods, sachets containing one or more drops of preservatives were used. Sachets were made by placing an appropriate amount of a preservative in a plastic bag containing a piece of paper and heat sealing the bag. The sachet bag materials used were Tyvek® for solid preservative, polyethylene, polyester and high barrier multilayer films were used for liquid preservatives. These bags were sealed with a heat sealer. The sachet was typically applied on one side of the container containing food.
# A piece of paper napkin was taped inside a 100 microns thick polyethylene or polyester Ziploc bag. The size of the bag varied from ˜20 cm×30 cm to ˜60 cm×90 cm depended on the sample with sandwich bags up to gallon bags being exemplary. The paper napkin was wetted with 0.1-0.5 ml of a preservative or a mixture of preservatives. A tray of aluminum, stainless steel or glass containing the foods was placed inside the plastic (polyethylene, polyester and multilayer-laminated) bag and almost closed by locking the Ziploc. Air was blown with an air blower from the unclosed end until the bag was fully blown and then quickly closed tightly by locking the remaining Ziploc. If a preservative was a sublimable solid, it was placed in a petri dish and then placed inside the bag in the tray before blowing air. The exposure time was varied from five minutes to a day depending upon the food. […] The assembly was shaken periodically. After the predetermined time, the tray containing produce was removed from the bag, allowed to de-gas for 10-30 minutes in air and the produce was then placed in an appropriately sized container. Glass and stainless steel containers with lids were also often used.
# A solution of one or more preservatives was prepared in a large (e.g., 2-10 liter) glass beaker or a jar. A sack containing the food was prepared by placing the food in a plastic mesh bag. The sack was placed in the solution of the preservative. A smaller glass beaker containing proper amount of water was place over the package to keep the sack soaked in the solution of the preservative during the treatment. The solution was stirred either with a plastic spatula or with a magnet over a magnetic stirrer. After treatment, the mesh sack was removed, the produce was washed in a tray with running water, strained and air dried at 30° C. in an air blowing oven for about 5-10 minutes, while shaking the tray or turning the food periodically followed by placing the sample in an appropriate container.
# The food was placed in mesh trays and sprayed with an aqueous solution (1-10%) of a preservative while shaking the tray or turning the food. The solution was allowed to drain from the tray and the food was air dried in an air blowing oven at 30° C. for about 5-10 minutes, while shaking the tray or turning food periodically followed by placing the sample in an appropriate container.
# [2] = system: fungus; assay: Fungus growth on treated foods stored in closed containers at room temperature; settings: for Spoilage Time - Sample: Fungus
# Excerpt: (§1) Most of the foods changed color or texture.
# Glass jars and bottles were also used. The containers were snap-closed or with a lid.
# (§2) These bags were sealed with a heat sealer.
# (§3) The assembly was shaken periodically.
# [3] = Curdling / cream / solidification of milk; settings: for Curdling of milk: pasteurized whole and fat-free milk
# Excerpt: as §1
# [4] = system: grains, legumes, potatoes, garlic; assay: Germination / sprouting of grains, legumes and tubers; settings: potatoes
# Excerpt: as §2, §3
compound,measurement,setting,value
CC12CCC(CC1=O)C2(C)C (racemic) [(±)-camphor],Shelf-life of flowery vegetables,[1],extended shelf-life
COc1ccccc1B(O)O [2-methoxyphenylboronic acid],Effectiveness in extending freshness of cold press fresh juices,[2],effective
same,Curdling,[3]; raw cow milk and raw goat milk,delayed curdling
Cc1ccc2cccc(O)c2n1 [2-methyl-8-quinolinol],Effectiveness for controlling one or more spoilage criteria,[1],effective to a greater or lesser extent
Cc1ccccc1B(O)O [2-methylphenylboronic acid],Curdling of milk,[3],delayed curdling
"CC1CCCCC1=O (stereo not drawn) [2MC, 2-Methylcyclohexanone]",Fungus growth,"[2]; strawberries, raspberries, blackberries and lychee",either prevented or significantly delayed
same,Shelf-life of flowery vegetables,[1],extended shelf-life
same,Effectiveness for controlling one or more spoilage criteria,[1],effective to a greater or lesser extent
"Cc1cc(C)cc(B(O)O)c1 [3,5-dimethylphenylboronic acid]",Effectiveness in extending freshness of cold press fresh juices,[2],effective
same,Curdling of milk,[3],delayed curdling
same,Curdling,[3]; raw cow milk and raw goat milk,delayed curdling
"OB(O)c1cccc(Cl)c1 [3-chlorophenylboronic acid, 3-Chlorophenylboronic acid]",Effectiveness in extending freshness of cold press fresh juices,[2],effective
same,Shelf-life of raw milk yogurt,[2]; raw milk yogurt,extended shelf-life
same,Curdling,"[3]; Example 135, fat-free milk",either prevented or significantly delayed
same,Spoilage Time - Sample (Solid),"[3]; Pasteurized fat free milk, 0.05 g, control 3 days",14 days
same,Curdling of milk,[3],delayed curdling
same,Curdling,[3]; raw cow milk and raw goat milk,delayed curdling
"COc1cccc(B(O)O)c1 [3-methoxyphenylboronic acid, 3-Methoxyphenylboronic acid]",Fungus growth,[2]; 96 h,> 27 days
same,Spoilage Time - Sample (Fungus),"[2]; Orange juice with peel, 0.02 g, control 4 days",27 days
same,Curdling of milk,[3],delayed curdling
same,Curdling,[3]; raw cow milk and raw goat milk,delayed curdling
COC(=O)c1ccc(B(O)O)cc1 [4-(methoxycarbonyl)phenylboronic acid],Effectiveness in extending freshness of cold press fresh juices,[2],effective
same,Curdling of milk,[3],delayed curdling
same,Curdling,[3]; raw cow milk and raw goat milk,delayed curdling
OB(O)c1ccc(-c2ccccc2)cc1 [4-biphenylboronic acid],Effectiveness in extending freshness of cold press fresh juices,[2],effective
same,Curdling of milk,[3],delayed curdling
same,Curdling,[3]; raw cow milk and raw goat milk,delayed curdling
"OB(O)c1ccc(Br)cc1 [4-bromophenylboronic acid, 4-Bromophenylboronic acid]",Fungus growth,"[2]; Example 134, raw milk yogurt, preservative added, control 3 days",> 5 days
same,Spoilage Time - Sample (Fungus),"[2]; Raw milk yogurt, 0.10 g, control 3 days",5 days
same,Effectiveness in extending freshness of cold press fresh juices,[2],effective
same,Curdling of milk,[3],delayed curdling
same,Curdling,[3]; raw cow milk and raw goat milk,delayed curdling
CC(=O)CC(C)(C)O [4-hydroxy-4-methyl-2-pentanone],Effectiveness for controlling one or more spoilage criteria,[1],effective to a greater or lesser extent
CC1CCC(=O)CC1 [4-methylcyclohexanone],Shelf-life of flowery vegetables,[1],extended shelf-life
same,Effectiveness for controlling one or more spoilage criteria,[1],effective to a greater or lesser extent
"CC(C)(C)c1ccc(B(O)O)cc1 [4-tert-butylphenylboronic acid, 4-tert-Butylphenylboronic acid]",Shelf-life of tomato juice,"[2]; Example 133, fresh cold pressed tomato juice",improve shelf-life
same,Spoilage Time - Sample (Fungus),"[2]; Tomato juice, 0.20 g, control 4 days",27 days
same,Shelf-life of raw milk yogurt,[2]; raw milk yogurt,extended shelf-life
same,Curdling of milk,[3],delayed curdling
same,Curdling,[3]; raw cow milk and raw goat milk,delayed curdling
"N.NC(=O)O [ACB, Ammonium carbaminate]",Spoilage Time - Sample (Fungus),"[2]; Fresh, unshelled peanuts, Sachet, control 5 days",45 days
"O=C1CCCCCC1 [CH, Cycloheptanone]",Spoilage Time - Sample,"[2]; Example 91, Blueberry, Sachet, control 5 days",67 days
same,Shelf-life of flowery vegetables,[1],extended shelf-life
same,Effectiveness for controlling one or more spoilage criteria,[1],effective to a greater or lesser extent
"O=C1CCCC1 [CP, Cyclopentanone]",Spoilage Time - Sample,"[2]; Example 115, Strawberry, Sachet, control 2 days",5 days
same,Shelf-life of flowery vegetables,[1],extended shelf-life
same,Effectiveness for controlling one or more spoilage criteria,[1],effective to a greater or lesser extent
"CCN=C=S [EI, ethyl isothiocyanate]",Spoilage Time - Sample,"[2]; Example 85, Tomato juice, 0.02 g, control 4 days",27 days
same,Spoilage Time - Sample,"[2]; Example 85, Tomato juice, 0.02 g, control 4 days, listed as Ethyl isothiocyanate",improve shelf-life
same,Effectiveness on ginger,"[2]; ginger, pre-exposure and sachet method",found effective
same,Shelf-life of raw milk yogurt,[2]; raw milk yogurt,extended shelf-life
same,Spoilage Time - Sample,"[3]; Example 84, Cream, Raw cow milk, 0.07 g, control 3 days",24 days
same,Spoilage Time - Sample,"[3]; Example 86, Solid, Pasteurized whole milk, 0.05 g, control 3 days",14 days
same,Spoilage Time - Sample,"[3]; Example 86, Solid, Pasteurized whole milk, 0.05 g, control 3 days, listed as ethyl isothiocyanate",either prevented or significantly delayed
same,Effectiveness at extending the shelf-life of potatoes,[4],effective
"CC1=CCCC1 [MCP, 1-Methylcyclopentene]",Shelf-life of flowery vegetables,[1],extended shelf-life
same,Shelf-life of shelled and unshelled peanuts,[1]; peanuts,extended
same,Effectiveness for controlling one or more spoilage criteria,[1],effective to a greater or lesser extent
N.N.N.O=P(O)(O)O [ammonium phosphate],Effectiveness at extending the shelf-life of potatoes,[4],effective
"c1ccc(COCc2ccccc2)cc1 [benzyl ether, Benzyl Ether]",Fungus growth,"[2]; Example 146, ginger, pre-exposed to vapor, control 12 days",> 37 days
same,Spoilage Time - Sample (Fungus),"[2]; Ginger, 1 hr P-E, control 12 days",37 days
same,Effectiveness for controlling one or more spoilage criteria,[1],effective to a greater or lesser extent
S=C=NCc1ccccc1 [benzyl isothiocyanate],Curdling,[3]; raw cow milk and raw goat milk,delayed curdling
OB(O)O [boric acid],Curdling of milk,[3],delayed curdling
CCCCN=C=S [butyl isothiocyanate],Effectiveness in extending freshness of cold press fresh juices,[2],effective
same,Curdling,[3]; raw cow milk and raw goat milk,delayed curdling
CCCCB(O)O [butylboronic acid],Effectiveness in extending freshness of cold press fresh juices,[2],effective
same,Shelf-life of raw milk yogurt,[2]; raw milk yogurt,extended shelf-life
same,Curdling of milk,[3],delayed curdling
same,Curdling,[3]; raw cow milk and raw goat milk,delayed curdling
O=c1ccc2ccccc2o1 [coumarin],Effectiveness for controlling one or more spoilage criteria,[1],effective to a greater or lesser extent
COC(=O)CC(=O)OC [dimethyl malonate],Effectiveness for controlling one or more spoilage criteria,[1],effective to a greater or lesser extent
"S [hydrogen sulfide, Hydrogen sulfide]",Fungus growth,"[2]; Example 159, snow peas, Himalayan salt sachet, control 6 days",> 11 days
same,Spoilage Time - Sample (Fungus),"[2]; Snow peas, Sachet, control 6 days (Example 159)",11 days
same,Spoilage Time - Sample (Fungus),"[2]; Snow peas, Sachet, control 11 days (Example 160)",15 days
COC(=O)C1CCCC1=O (stereo not drawn) [methyl cyclopentanone-2-carboxylate],Effectiveness for controlling one or more spoilage criteria,[1],effective to a greater or lesser extent
Cc1ccc(N=C=S)cc1 [p-tolyl isothiocyanate],Curdling,[3]; raw cow milk and raw goat milk,delayed curdling
Oc1cccc(O)c1 [resorcinol],Effectiveness for controlling one or more spoilage criteria,[1],effective to a greater or lesser extent
